Measured values reported in patent publication US10183021B2, “sGC stimulators” (Ironwood Pharmaceuticals, Inc., priority 2013, dated 2019).
Like-named read-outs stand apart in the source and are kept apart here.

Legend:
[1] = biological target: T1, soluble guanylate cyclase (sGC) (Homo sapiens (Human), UniProt Q02108+Q02153); test: sGC-HEK-cGMP assay with SNP incubation, LC/MS detection (Example 2A); assay type: cell-based
Procedure, shortened: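 HEK293 cells with endogenous sGC were pretreated 15 min at 37 °C with 0.5 mM IBMX, then exposed 10 min at 37 °C to compound (added from 0.0001–30 μM solutions) plus SNP (from 10 μM solution). After 0.1 M HCl lysis, cGMP was quantified by LC/MS against a standard curve.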

[2] = biological target: T1, soluble guanylate cyclase (sGC); test: sGC-HEK-cGMP assay, new protocol with DETA-NONOate, LC/MS detection (Example 2C); assay type: cell-based
[3] = HEK293 cells, 10 μM SNP, LC/MS detection, 100% = BAY 41-2272 at 10 μM, read-out: HEK assay Emax - unconstrained (%)
[4] = HEK293 cells, 10 μM SNP, LC/MS detection, top of curve not fitted to 100%, read-out: HEK assay EC50 - unconstrained
[5] = read-out: Absolute EC50 (uM) - binned
[6] = HEK293 cells, 10 μM SNP, LC/MS detection, top of curve fitted to 100%, read-out: HEK assay EC50 - constrained

T1 sequence (Q02153 whole entry): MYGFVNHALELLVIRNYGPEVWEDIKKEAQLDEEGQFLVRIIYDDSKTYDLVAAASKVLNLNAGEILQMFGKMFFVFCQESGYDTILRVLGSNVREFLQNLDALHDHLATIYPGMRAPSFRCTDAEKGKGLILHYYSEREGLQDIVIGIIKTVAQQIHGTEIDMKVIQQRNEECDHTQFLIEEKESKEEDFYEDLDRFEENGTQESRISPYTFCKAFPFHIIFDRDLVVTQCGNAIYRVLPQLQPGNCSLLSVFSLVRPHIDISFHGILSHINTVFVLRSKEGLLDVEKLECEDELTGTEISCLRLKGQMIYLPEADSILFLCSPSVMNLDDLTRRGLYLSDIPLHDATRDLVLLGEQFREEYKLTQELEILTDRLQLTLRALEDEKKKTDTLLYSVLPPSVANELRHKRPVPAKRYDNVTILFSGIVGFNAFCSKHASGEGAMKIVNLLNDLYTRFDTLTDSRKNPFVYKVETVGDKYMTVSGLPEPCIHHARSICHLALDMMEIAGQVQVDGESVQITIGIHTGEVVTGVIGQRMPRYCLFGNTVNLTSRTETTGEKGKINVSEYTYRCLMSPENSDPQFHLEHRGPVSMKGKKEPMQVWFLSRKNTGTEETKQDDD
T1 sequence (Q02108 whole entry): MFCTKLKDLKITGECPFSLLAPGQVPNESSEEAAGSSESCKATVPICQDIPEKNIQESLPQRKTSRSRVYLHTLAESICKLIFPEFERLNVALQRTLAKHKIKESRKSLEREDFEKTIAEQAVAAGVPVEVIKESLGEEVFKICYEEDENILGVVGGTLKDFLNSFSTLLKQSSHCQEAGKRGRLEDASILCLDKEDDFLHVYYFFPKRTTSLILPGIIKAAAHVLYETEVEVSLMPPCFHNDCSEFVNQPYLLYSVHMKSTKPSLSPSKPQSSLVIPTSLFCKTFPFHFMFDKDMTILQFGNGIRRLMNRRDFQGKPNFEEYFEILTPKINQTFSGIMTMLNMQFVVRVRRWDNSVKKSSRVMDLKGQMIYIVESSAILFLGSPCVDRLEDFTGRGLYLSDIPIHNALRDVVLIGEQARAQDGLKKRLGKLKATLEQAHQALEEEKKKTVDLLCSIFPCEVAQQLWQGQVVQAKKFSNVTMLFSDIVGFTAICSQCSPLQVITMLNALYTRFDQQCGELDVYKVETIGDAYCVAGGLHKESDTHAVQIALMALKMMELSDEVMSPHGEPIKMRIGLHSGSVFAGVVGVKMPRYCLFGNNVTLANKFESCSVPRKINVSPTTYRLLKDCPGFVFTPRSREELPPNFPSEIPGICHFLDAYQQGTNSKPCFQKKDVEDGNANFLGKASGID

SMILES	Emax [1, 3]	EC50 [1, 4]	EC50 [2, 5]	EC50 [1, 6]	EC50 [1]	Emax ([1]; HEK293, read-out: HEK assay Emax - unconstrained (%))	EC50 [2]
CN(c1nc(-c2cc(-c3ccon3)n(Cc3ccccc3F)n2)ncc1F)[C@H](C(=O)O)C1CC1 [Compound I-239]	60 to 80%	1 to 100 nM	< 0.1 µM	–	–	–	–
O=C(O)CC1(Nc2nc(-c3cc(-c4ccon4)n(Cc4ccccc4F)n3)ncc2F)CCOCC1 [Compound I-245]	–	–	0.101 to 1 µM	100 to 500 nM	–	–	–
CN(CC1(C(=O)O)CC1)c1nc(-c2cc(-c3ccon3)n(Cc3ccccc3F)n2)ncc1F [Compound I-250]	80 to 100%	1 to 100 nM	< 0.1 µM	–	–	–	–
CN(c1nc(-c2cc(-c3ccon3)n(Cc3ccccc3F)n2)ncc1F)[C@@H](Cc1ccccn1)C(=O)O [Compound I-257]	–	–	> 1 µM	> 10000 nM	–	–	–
CC(C)[C@H](Nc1nc(-c2cc(-c3ccon3)n(Cc3ccccc3F)n2)ncc1F)C(=O)NS(=O)(=O)C1CC1 [Compound I-258]	100 to 120%	1000 to 5000 nM	0.101 to 1 µM	–	–	–	–
O=C(O)C1(O)CCN(c2nc(-c3cc(-c4ccon4)n(Cc4ccccc4F)n3)ncc2F)CC1 [Compound I-300]	60 to 80%	500 to 1000 nM	0.101 to 1 µM	–	–	–	–
C[C@H]1CCCN(c2nc(-c3cc(-c4ccon4)n(Cc4cccc(F)c4F)n3)ncc2F)[C@H]1C(=O)O [Compound I-305]	0 to 10%	> 10000 nM	< 0.1 µM	–	–	–	–
CN(c1nc(-c2cc(-c3ccon3)n(Cc3ccccc3F)n2)ncc1F)C12CC(C(=O)O)(C1)C2 [Compound I-307]	100 to 120%	1000 to 5000 nM	0.101 to 1 µM	–	–	–	–
CN(CC(=O)NS(=O)(=O)c1ccccc1)c1nc(-c2cc(-c3ccon3)n(Cc3ccccc3F)n2)ncc1F [Compound I-361]	0 to 10%	100 to 500 nM	< 0.1 µM	–	–	–	–
Oc1noc2c1CCN(c1nc(-c3cc(-c4ccon4)n(Cc4ccccc4F)n3)ncc1F)C2 [Compound I-364]	–	–	–	–	1 to 100 nM	80 to 100%	< 0.1 µM
O=C(O)[C@@H]1[C@H]2CC[C@H](C2)N1c1nc(-c2cc(-c3ccon3)n(Cc3ccccc3F)n2)ncc1F [Compound I-365]	80 to 100%	1000 to 5000 nM	0.101 to 1 µM	–	–	–	–
NS(=O)(=O)C1CCN(c2nc(-c3cc(-c4ccon4)n(Cc4ccccc4F)n3)ncc2F)CC1 [Compound I-366]	40 to 60%	1 to 100 nM	< 0.1 µM	–	–	–	–
CNS(=O)(=O)CCNc1nc(-c2cc(-c3ccon3)n(Cc3ccccc3F)n2)ncc1F [Compound I-367]	60 to 80%	1 to 100 nM	< 0.1 µM	–	–	–	–
CN(CCS(=O)(=O)O)c1nc(-c2cc(-c3ccon3)n(Cc3ccccc3F)n2)ncc1F [Compound I-368]	20 to 40%	100 to 500 nM	> 1 µM	–	–	–	–
O=C(O)[C@@H]1CCc2ccccc2[C@@H]1Nc1nc(-c2cc(-c3ccon3)n(Cc3ccccc3F)n2)ncc1F [Compound I-369]	60 to 80%	1 to 100 nM	< 0.1 µM	–	–	–	–
O=C(O)[C@@H]1Cc2ccccc2[C@@H]1Nc1nc(-c2cc(-c3ccon3)n(Cc3ccccc3F)n2)ncc1F [Compound I-371]	10 to 20%	> 10000 nM	< 0.1 µM	–	–	–	–
CCOC(=O)c1csc(CN(C)c2nc(-c3cc(-c4ccon4)n(Cc4ccccc4F)n3)ncc2F)n1 [Compound I-372]	60 to 80%	100 to 500 nM	0.101 to 1 µM	–	–	–	–
CN(CCS(N)(=O)=O)c1nc(-c2cc(-c3ccon3)n(Cc3ccccc3F)n2)ncc1F [Compound I-374]	100 to 120%	100 to 500 nM	< 0.1 µM	–	–	–	–
CN(Cc1nc(C(=O)O)co1)c1nc(-c2cc(-c3ccon3)n(Cc3ccccc3F)n2)ncc1F [Compound I-375]	100 to 120%	100 to 500 nM	> 1 µM	–	–	–	–
CN(Cc1nc(C(=O)O)cn1C)c1nc(-c2cc(-c3ccon3)n(Cc3ccccc3F)n2)ncc1F [Compound I-376]	100 to 120%	5000 to 10000 nM	> 1 µM	–	–	–	–
O=C(O)[C@H]1[C@@H](C(F)(F)F)CCCN1c1nc(-c2cc(-c3ccon3)n(Cc3ccccc3F)n2)ncc1F [Compound I-454]	20 to 40%	> 10000 nM	< 0.1 µM	–	–	–	–
